Experimental data from PMC10866072, “Design, synthesis, molecular modelling and biological evaluation of novel 6-amino-5-cyano-2-thiopyrimidine derivatives as potent anticancer agents against leukemia and apoptotic inducers” (Journal of Enzyme Inhibition and Medicinal Chemistry, 2024).

Legend:
[1] = system: RPMI-8226; format: cell-based; conditions: Homo sapiens, one dose 10^-5 M, 48 h
[2] = system: SK-MEL-2; format: cell-based; conditions: Homo sapiens, one dose 10^-5 M, 48 h
[3] = system: full NCI 60 cell lines panel
[4] = system: HCT-15; format: cell-based; conditions: Homo sapiens, one dose 10^-5 M, 48 h, read-out: % growth
[5] = system: CCRF-CEM; format: cell-based; conditions: Homo sapiens, one dose 10^-5 M, 48 h
[6] = system: IGROV1; format: cell-based; conditions: Homo sapiens, IGROV-1, one dose 10^-5 M, 48 h, read-out: % growth
[7] = system: 786-0; format: cell-based; conditions: Homo sapiens, one dose 10^-5 M, 48 h
[8] = system: ACHN; format: cell-based; conditions: Homo sapiens, one dose 10^-5 M, 48 h
[9] = system: SF-295; format: cell-based; conditions: Homo sapiens, one dose 10^-5 M, 48 h
[10] = system: K-562; format: cell-based; conditions: Homo sapiens, K562, one dose 10^-5 M, 48 h
[11] = system: SK-MEL-28; format: cell-based; conditions: Homo sapiens, one dose 10^-5 M, 48 h
[12] = system: PC-3; format: cell-based; conditions: Homo sapiens, one dose 10^-5 M, 48 h
[13] = system: M14; format: cell-based; conditions: Homo sapiens, one dose 10^-5 M, 48 h
[14] = system: HOP-62; format: cell-based; conditions: Homo sapiens, one dose 10^-5 M, 48 h
[15] = system: A549/ATCC; format: cell-based; conditions: Homo sapiens, one dose 10^-5 M, 48 h
[16] = system: KM12; format: cell-based; conditions: Homo sapiens, one dose 10^-5 M, 48 h
[17] = system: NCI-H226; format: cell-based; conditions: Homo sapiens, one dose 10^-5 M, 48 h
[18] = system: A498; format: cell-based; conditions: Homo sapiens, one dose 10^-5 M, 48 h
[19] = system: MDA-MB-468; format: cell-based; conditions: Homo sapiens, one dose 10^-5 M, 48 h
[20] = system: MDA-MB-435; format: cell-based; conditions: Homo sapiens, one dose 10^-5 M, 48 h, read-out: % growth
[21] = system: SNB-75; format: cell-based; conditions: Homo sapiens, one dose 10^-5 M, 48 h
[22] = system: MCF7; format: cell-based; conditions: Homo sapiens, one dose 10^-5 M, 48 h, read-out: % growth
[23] = system: TK-10; format: cell-based; conditions: Homo sapiens, one dose 10^-5 M, 48 h
[24] = system: EKVX; format: cell-based; conditions: Homo sapiens, one dose 10^-5 M, 48 h
[25] = system: CAKI-1; format: cell-based; conditions: Homo sapiens, CAKI-1, 48 h, one dose 10^-5 M, 48 h
[26] = system: NCI-H522; format: cell-based; conditions: Homo sapiens, one dose 10^-5 M, 48 h
[27] = system: NCI-H460; format: cell-based; conditions: Homo sapiens, one dose 10^-5 M, 48 h, read-out: % growth
[28] = system: SNB-19; format: cell-based; conditions: Homo sapiens, one dose 10^-5 M, 48 h, read-out: % growth
[29] = system: MALME-3M; format: cell-based; conditions: Homo sapiens, one dose 10^-5 M, 48 h
[30] = system: OVCAR-5; format: cell-based; conditions: Homo sapiens, one dose 10^-5 M, 48 h
[31] = system: HCC-2998; format: cell-based; conditions: Homo sapiens, one dose 10^-5 M, 48 h
[32] = system: UO-31; format: cell-based; conditions: Homo sapiens, UO-31, 48 h, one dose 10^-5 M, 48 h
[33] = system: HOP-92; format: cell-based; conditions: Homo sapiens, one dose 10^-5 M, 48 h
[34] = system: OVCAR-4; format: cell-based; conditions: Homo sapiens, one dose 10^-5 M, 48 h
[35] = system: SF-539; format: cell-based; conditions: Homo sapiens, one dose 10^-5 M, 48 h
[36] = system: HS 578T; format: cell-based; conditions: Homo sapiens; one dose 10^-5 M, 48 h; HS 578T; read-out: % growth
[37] = system: SK-MEL-5; format: cell-based; conditions: Homo sapiens, one dose 10^-5 M, 48 h, read-out: % growth
[38] = system: DU-145; format: cell-based; conditions: Homo sapiens, one dose 10^-5 M, 48 h
[39] = system: HCT-116; format: cell-based; conditions: Homo sapiens, one dose 10^-5 M, 48 h, read-out: % growth
[40] = system: UACC-62; format: cell-based; conditions: Homo sapiens, one dose 10^-5 M, 48 h
[41] = system: LOX IMVI; format: cell-based; conditions: Homo sapiens, one dose 10^-5 M, 48 h, read-out: % growth
[42] = system: SK-OV-3; format: cell-based; conditions: Homo sapiens, one dose 10^-5 M, 48 h
[43] = system: NCI-H23; format: cell-based; conditions: Homo sapiens, one dose 10^-5 M, 48 h, read-out: % growth
[44] = system: SW-620; format: cell-based; conditions: Homo sapiens, one dose 10^-5 M, 48 h
[45] = system: OVCAR-8; format: cell-based; conditions: Homo sapiens, one dose 10^-5 M, 48 h
[46] = system: U251; format: cell-based; conditions: Homo sapiens, U-251, one dose 10^-5 M, 48 h
[47] = system: T-47D; format: cell-based; conditions: Homo sapiens, T47D, one dose 10^-5 M, 48 h, read-out: % growth
[48] = system: HT29; format: cell-based; conditions: Homo sapiens, HT-29, one dose 10^-5 M, 48 h
[49] = system: RXF 393; format: cell-based; conditions: Homo sapiens, RXF 393, 48 h, one dose 10^-5 M, 48 h, read-out: % growth
[50] = system: MOLT-4; format: cell-based; conditions: Homo sapiens, one dose 10^-5 M, 48 h, read-out: % growth
[51] = system: SR; format: cell-based; conditions: Homo sapiens, one dose 10^-5 M, 48 h
[52] = system: SN12C; format: cell-based, human; conditions: Homo sapiens, one dose 10^-5 M, 48 h
[53] = system: MDA-MB-231/ATCC; format: cell-based; conditions: Homo sapiens, one dose 10^-5 M, 48 h
[54] = system: UACC-257; format: cell-based; conditions: Homo sapiens, one dose 10^-5 M, 48 h
[55] = system: HL-60(TB); format: cell-based; conditions: Homo sapiens, one dose 10^-5 M, 48 h
[56] = system: OVCAR-3; format: cell-based; conditions: Homo sapiens, one dose 10^-5 M, 48 h
[57] = system: SF-268; format: cell-based; conditions: Homo sapiens, one dose 10^-5 M, 48 h, read-out: % growth

In the case of Nc1nc(S)nc(-c2ccc(Cl)cc2)c1-c1ncn[nH]1 [Compound 5b, 4-Amino-6–(4-chlorophenyl)-5-(1H-1,2,4-triazol-5-yl)pyrimidine-2-thiol], the % growth at 10 µM [1] is reported as 98.6%, the % growth at 10 µM [2] is reported as 108% and the activity at 10 µM ([3]; Homo sapiens, 60 cell, 48 h, read-out: Mean % growth) is reported as 98.4%. The “activity on all 60 cancer cell lines tested (in words)” value ([3]; one dose) was “weak activity”, the activity at 10 µM [4] was 103% and the % cell growth at 10 µM [5] was 97.9%. It also gave an activity at 10 µM [6] of 98.7%, a % growth at 10 µM [7] of 108% and a % growth at 10 µM [8] of 96.9%. It also gave a % cell growth at 10 µM [9] of 93.7%, a % growth at 10 µM [10] of 103% and a % cell growth at 10 µM [11] of 111%. The percent cell growth at 10 µM [12] was 85.5%, the % growth at 10 µM [13] was 98.9% and the % growth at 10 µM [14] was 88.6%. It also gave a % growth at 10 µM [15] of 110%, a % growth at 10 µM [16] of 102% and a % growth at 10 µM [17] of 92.7%. It also gave a % growth at 10 µM [18] of 109%, a percent cell growth at 10 µM [19] of 101% and an activity at 10 µM [20] of 103%. The % growth at 10 µM [21] was 78.7%, the activity at 10 µM [22] was 93.8% and the % cell growth at 10 µM [23] was 109%. For the same compound, the % cell growth at 10 µM [24] was 98%, the % growth at 10 µM [25] was 82.8% and the % growth at 10 µM [26] was 85.5%. It also gave an activity at 10 µM [27] of 110%, an activity at 10 µM [28] of 91% and a % growth at 10 µM [29] of 92.6%. For the same compound, the percent cell growth at 10 µM [30] was 96.7%, the % growth at 10 µM [31] was 94.8% and the % cell growth at 10 µM [32] was 74.6%. For the same compound, the % growth at 10 µM [33] was 91.7%, the % growth at 10 µM [34] was 112% and the % growth at 10 µM [35] was 92.5%. The activity at 10 µM [36] was 111%, the activity at 10 µM [37] was 98.7% and the % growth at 10 µM [38] was 109%. It also gave an activity at 10 µM [39] of 92.1%, a % growth at 10 µM [40] of 95.9% and an activity at 10 µM [41] of 99.2%. The % growth at 10 µM [42] was 85.5%, the activity at 10 µM [43] was 97% and the % growth at 10 µM [44] was 103%. The % growth of cells at 10 µM [45] was 94.8%, the % growth at 10 µM [46] was 98.8% and the activity at 10 µM [47] was 86.4%. For the same compound, the % growth at 10 µM [48] was 95.4%, the activity at 10 µM [49] was 115% and the activity at 10 µM [50] was 108%. The percent cell growth at 10 µM [51] was 96.6%, the % growth at 10 µM [52] was 93.5% and the % growth at 10 µM [53] was 93.7%. The percent cell growth at 10 µM [54] was 112%, the % growth at 10 µM [55] was 108% and the % growth at 10 µM [56] was 108%. For the same compound, the activity at 10 µM [57] was 96.7%.
